Measurements taken from US10071967B2, “N-cycloalkyl-N-{[2-(1-substitutedcycloalkyl)phenyl]methylene}-(thio)carboxamide derivatives” (BAYER CROPSCIENCE AKTIENGESELLSCHAFT, priority 2013, dated 2018).

Columns and labels:
[1] = test system: Puccinia recondita; assay: In vivo preventive test on Puccinia recondita (brown rust on wheat); settings: for Efficacy: Table A1, dose 100 ppm, examples from WO-2012/052490 formulated in DMF with 2% of alkylarylpolyglycolether; for protection: dose of 100 ppm of active ingredient, comparison with WO-2012/052490
Protocol: Example A: In Vivo Preventive Test on Puccinia recondita (Brown Rust on Wheat) […]
Emulsifier: 1 μL of Tween® 80 per mg of active ingredient
(§1) The active ingredients are made soluble and homogenized in a mixture of Dimethyl sulfoxide/Acetone/Tween® 80 and then diluted in water to the desired concentration.
The young plants of wheat are treated by spraying the active ingredient prepared as described above. Control plants are treated only with an aqueous solution of Acetone/Dimethyl sulfoxide/Tween® 80. After 24 hours, the plants are contaminated by spraying the leaves with an aqueous suspension of Puccinia recondita spores. The contaminated wheat plants are incubated for 24 hours at 20° C. and at 100% relative humidity and then for 10 days at 20° C. and at 70-80% relative humidity.
(§2) The test is evaluated 11 days after the inoculation. 0% means an efficacy which corresponds to that of the control plants while an efficacy of 100% means that no disease is observed.

[2] = test system: Phakopsora pachyrhizi; assay: In vivo preventive test on Phakopsora pachyrhizi (soybean rust); settings: for protection: dose of ppm of active ingredient (number not given), comparison with WO-2010/130767, text
Protocol: Example C: In Vivo Preventive Test on Phakopsora pachyrhizi (Soybean Rust)
Solvent: 24.5 parts by weight of acetone • 24.5 parts by weight of N,N-dimethylacetamide
Emulsifier: 1 part by weight of alkylaryl polyglycol ether
To produce a suitable preparation of active compound, 1 part by weight of active compound is mixed with the stated amounts of solvent and emulsifier, and the concentrate is diluted with water to the desired concentration.
To test for preventive activity, young plants are sprayed with the preparation of active compound at the stated rate of application. After the spray coating has dried on, the plants are inoculated with an aqueous spore suspension of the causal agent of soybean rust (Phakopsora pachyrhizi) and stay for 24 h without light in an incubation cabinet at approximately 24° C. and a relative atmospheric humidity of 95%.
The plants remain in the incubation cabinet at approximately 24° C. and a relative atmospheric humidity of approximately 80% and a day/night interval of 12 h. The test is evaluated 7 days after the inoculation. 0% means an efficacy which corresponds to that of the untreated control, while an efficacy of 100% means that no disease is observed.

[3] = log P by HPLC on a reversed-phase column (C 18), EEC Directive 79/831 Annex V.A8; assay type: physicochemical; settings: 0.1% aqueous formic acid and acetonitrile
Protocol: In table 1, the log P values were determined in accordance with EEC Directive 79/831 Annex V.A8 by HPLC (High Performance Liquid Chromatography) on a reversed-phase column (C 18), using the method described below: Temperature: 40° C.; Mobile phases: 0.1% aqueous formic acid and acetonitrile; linear gradient from 10% acetonitrile to 90% acetonitrile. Calibration was carried out using unbranched alkan-2-ones (comprising 3 to 16 carbon atoms) with known log P values (determination of the log P values by the retention times using linear interpolation between two successive alkanones). lambda-max-values were determined using UV-spectra from 200 nm to 400 nm and the peak values of the chromatographic signals.

[4] = test system: Uromyces appendiculatus; assay: In vivo preventive test on Uromyces appendiculatus (bean rust); settings: for Efficacy: Table B1, dose 10 ppm
Protocol: Example B: In Vivo Preventive Test on Uromyces appendiculatus (Bean Rust)
Solvent: 5% by volume of Dimethyl sulfoxide • 10% by volume of Acetone
Emulsifier: […] of Tween® 80 per mg of active ingredient
as §1
The young plants of bean are treated by spraying the active ingredient prepared as described above.
Control plants are treated only with an aqueous solution of Acetone/Dimethyl sulfoxide/Tween® 80.
After 24 hours, the plants are contaminated by spraying the leaves with an aqueous suspension of Uromyces appendiculatus spores. The contaminated bean plants are incubated for 24 hours at 20° C. and at 100% relative humidity and then for 10 days at 20° C. and at 70-80% relative humidity.
as §2

[5] = HPLC, reversed-phase column (C 18), 40° C., linear gradient 10% to 90% acetonitrile

In the case of Cn1nc(C(F)F)c(C(=O)NCc2ccccc2C2CC2)c1Cl [66 from WO-2012/052490, 5-chloro-N-(2-cyclo-propylbenzyl)-3-(difluoromethyl)-1-methyl-1H-pyrazole-4-carboxamide], the Efficacy [1] is reported as 0% and the protection [1] is reported as “no protection”.

In the case of CCC1(c2ccccc2CN(C(=O)c2cn(C)nc2C(F)F)C2CC2)CC1 [I.067], the Efficacy [1] is reported as 98% and the protection [1] is reported as “at least 98%”.

CCCC1(c2ccc(C)cc2CN(C(=O)c2c(C)nn(C)c2F)C2CC2)CC1 [I.113] gave an Efficacy ([2]; Table C1, dose 10 ppm) of 85% and a logP [3, 5] of 4.61.

Work on Cn1cc(C(=O)N(Cc2cc(Cl)ccc2C2(C)CC2)C2CC2)c(C(F)F)n1 [I.029, N-[5-chloro-2-(1-methylcyclopropyl)benzyl]-N-cyclopropyl-3-(difluoromethyl)-1-methyl-1H-pyrazole-4-carboxamide] yielded an Efficacy [4] of 98%.

Cc1ccc(C2(C)CC2)c(CN(C(=O)c2c(C)nn(C)c2F)C2CC2)c1 [I.040] showed an Efficacy ([2]; Table C1, dose 10 ppm) of 99%.

In the case of Cc1ccc(C2(C)CC2)c(CN(C(=O)c2cn(C)nc2C(F)F)C2CC2)c1 [I.033], the Efficacy [4] is reported as 100% and the logP [3, 5] is reported as 3.74.

For Cn1nc(C(F)F)c(C(=O)N(Cc2cc(F)ccc2C2CC2)C2CC2)c1F [123 from WO-2010/130767, N-cyclopropyl-N-(2-cyclopropyl-5-fluorobenzyl)-3-(difluoromethyl)-5-fluoro-1-methyl-1H-pyrazole-4-carboxamide, reference compound], the Efficacy ([2]; Table C1, dose 10 ppm) was 0/23.

With Cn1nc(C(F)F)c(C(=O)NCc2ccccc2C2CC2)c1F [65 from WO-2012/052490, N-(2-cyclopropylbenzyl)-3-(difluoromethyl)-5-fluoro-1-methyl-1H-pyrazole-4-carboxamide] the Efficacy [1] was 0% and the protection [1] was “no protection”.

Work on Cn1nc(C(F)F)c(C(=O)N(Cc2ccccc2C2CC2)C2CC2)c1F [47 from WO-2010/130767, N-cyclopropyl-N-(2-cyclopropylbenzyl)-3-(difluoromethyl)-5-fluoro-1-methyl-1H-pyrazole-4-carboxamide, reference compound] yielded an Efficacy ([2]; Table C1, dose 10 ppm) of 0%.

In the case of Cn1nc(C(F)F)c(C(=O)N(Cc2cc(Cl)ccc2C2CC2)C2CC2)c1F [41 from WO-2010/130767, N-(5-chloro-2-cyclopropylbenzyl)-N-cyclopropyl-3-(difluoromethyl)-5-fluoro-1-methyl-1H-pyrazole-4-carboxamide, reference compound], the protection [2] is reported as “no protection”.

In the case of CCC1(c2ccc(Cl)cc2CN(C(=O)c2c(C)nn(C)c2F)C2CC2)CC1 [I.087], the Efficacy ([2]; Table C2, dose 10 ppm) is reported as 79% and the protection [2] is reported as “at least 70%”.

For Cc1ccc(C2(C(F)F)CC2)c(CN(C(=O)c2c(C)nn(C)c2F)C2CC2)c1 [Example 1.139], the logP [3, 5] was 3.21.

For CCC1(c2cc(C)ccc2CN(C(=O)c2c(C)nn(C)c2F)C2CC2)CC1 [Example 1.075], the logP [3, 5] was 4.11.

Work on Cn1cc(C(=O)N(Cc2cccc(F)c2C2(C)CC2)C2CC2)c(C(F)F)n1 [Example 1.003] yielded a logP [3, 5] of 3.46.

“1-(2-formyl-4-methylphenyl)cyclopropanecarbonitrile [IV.16]” gave a logP ([3]; Table 4, compounds of formula (IV), HPLC C 18, 40° C.) of 2.08.

With Cc1nn(C)c(F)c1C(=O)N(Cc1ccccc1C1CCCCC1)C1CC1 [399 from WO-2007/087906, N-(2-cyclohexylbenzyl)-N-cyclopropyl-5-fluoro-1,3-dimethyl-1H-pyrazole-4-carboxamide, reference compound] the Efficacy [4] was 0% and the protection ([4]; dose of ppm of active ingredient (number not given), comparison with WO-2007/087906, text) was “no protection”.

With Cn1cc(C(=O)N(Cc2cc(Cl)ccc2C2(C(F)F)CC2)C2CC2)c(C(F)F)n1 [Example 1.135] the logP [3, 5] was 3.37.

Work on Cc1nn(C)c(F)c1C(=S)N(Cc1ccc(F)cc1C1(C)CC1)C1CC1 [Example 1.015] yielded a logP [3, 5] of 4.18.

Molecule Cn1cc(C(=S)N(Cc2cc(F)ccc2C2(C(F)(F)F)CC2)C2CC2)c(C(F)F)n1 [Example 1.152] has a logP ([3]; HPLC reversed-phase C 18, 40° C., gradient 10% to 90% acetonitrile) of 3.94.

With CCc1cc(C(=O)N(Cc2cc(C)ccc2C2(C)CC2)C2CC2)c(C)o1 [Example 1.051] the logP [3, 5] was 5.25.

Molecule CCC1(c2ccc(Cl)cc2CN(C(=O)c2c(OC(F)F)nn(C)c2C(F)(F)F)C2CC2)CC1 [Example 1.091] has a logP [3, 5] of 5.36.

For Cn1cc(C(F)F)c(C(=O)N(Cc2cc(Br)ccc2C2(C)CC2)C2CC2)n1 [Example 1.025], the logP [3, 5] was 4.39.

Molecule Cc1ccc(C2(C)CC2)c(CN(C(=S)c2sccc2I)C2CC2)c1 [Example 1.054] has a logP [3, 5] of 5.72.

Cn1cc(C(=O)N(Cc2ccccc2C2(C(F)(F)F)CC2)C2CC2)c(C(F)F)n1 [Example 1.145] gave a logP [3, 5] of 3.41.

C#CC1(c2ccc(C)cc2CN(C(=O)c2cn(C)nc2C(F)F)C2CC2)CC1 [Example 1.064] showed a logP [3, 5] of 3.31.

Cc1cc(C(=S)N(Cc2ccc(Cl)cc2C2(C)CC2)C2CC2)c(C)o1 [Example 1.012] showed a logP [3, 5] of 5.65.
